Where a name gives a salt, the structure may show the parent alone. Read-outs that look alike come from different tables or passages of the source.
Key:
human PBMCs [1] = conditions: 7 days
in vitro = conditions: human
[2] = test system: drug-resistant HIV-1 isolates; assay: Anti-HIV efficacy in fresh human PBMCs, drug-resistant HIV-1 isolates; conditions: for IC50: Human immunodeficiency virus 1, PBMC, in Homo sapiens
[3] = MTS cytotoxicity in monocyte/macrophage cultures; assay type: cell-based; conditions: human, TC50
Method: (§1) Anti-HIV Efficacy Evaluation in Fresh Human Monocyte/Macrophage. Monocytes/macrophages were allowed to adhere to the interior 60 wells of a 96 well flat bottomed plate for 2 to 18 hours at 37° C., 5% CO2. Following 6 to 14 days in culture, the monocyte/macrophage cultures were washed 3 times to remove any non-adherent cells and serially diluted test compounds were added followed by the addition of a pre-titered amount of HIV. Cultures were washed a final time by media removal 24 hours post infection, fresh compound added and the cultures continued for an additional six days. […] At assay termination, virus replication was measured by collecting cell-free supernatant samples which were analyzed for HIV p24 antigen content using a commercially available p24 ELISA assay (Coulter). […] MTS staining for PBMC viability to measure cytotoxicity. […] The mitochondrial enzymes of metabolically active cells metabolize MTS to yield a soluble formazan product. This allows the rapid quantitative analysis of cell viability and compound cytotoxicity. […] At termination of the assay, 20 μL of MTS reagent was added per well. The microtiter plates were then incubated 4-6 hrs at 37° C. The incubation intervals were chosen based on empirically determined times for optimal dye reduction. […] Data analysis.

[4] = test system: human monocytes/macrophages; assay: MTS cytotoxicity in monocyte/macrophage cultures; assay type: cell-based; conditions: 7 days
Method: as §1

HIV-2 CDC 310319 [5] = assay: microbe, parasite or virus in culture; conditions: Human immunodeficiency virus 2, PBMC
HIV-1 clinical isolates [6] = test system: HIV-1 clinical isolates
human PBMCs [7] = assay: MTS staining for PBMC viability (cytotoxicity); conditions: read-out: TC50, PBMCs, MTS
HIV-1 clinical isolates [8] = assay: microbe, parasite or virus in culture; conditions: Human immunodeficiency virus 1, PBMC
HIV-2 CDC 310319 [9] = conditions: HIV-2 CDC 310319 in PBMCs
[10] = test system: HIV-1 macrophage-tropic virus strains
[11] = test system: HIV-1 macrophage-tropic virus strains; assay: microbe, parasite or virus in culture; conditions: in Homo sapiens

enfuvirtide
CC50 (human PBMCs [1]): > 10000 nM
CC50 at 7 days (in vitro): > 10000 nM

Cc1c(O)cccc1C(=O)N[C@@H](CSc1ccccc1)[C@H](O)CN1C[C@H]2CCCC[C@H]2C[C@H]1C(=O)NC(C)(C)C [Nelfinavir, nelfinavir mesylate]
TI (TC50/IC50) ([2]; HIV-1 52-52 in PBMCs): >10.5
TI (TC50/IC50) ([2]; HIV-1 144-44 in PBMCs): >6.05
TI (TC50/IC50) ([2]; HIV-1 1064-52 in PBMCs): >1.19
TI (TC50/IC50) ([2]; HIV-1 MDR 807 in PBMCs): >7.41
IC50 ([2]; HIV-1 52-52 (protease-inhibitor resistant) in PBMCs): 95 nM
IC50 ([2]; against several viruses (e.g., MDR 1385, MDR 3761) in PBMCs): > 1000 nM
IC50 ([2]; multi-drug-resistant HIV-1 MDR 769 in PBMCs): > 1000 nM
IC50 ([2]; multi-drug-resistant HIV-1 MDR 807 in PBMCs): 135 nM
IC50 ([2]; multi-drug-resistant HIV-1 MDR 1385 in PBMCs): > 1000 nM
IC50 ([2]; multi-drug-resistant HIV-1 MDR 3761 in PBMCs): > 1000 nM
CC50 at 7 days [3]: > 10000 nM
CC50 [4]: > 10000 nM
CC50 (human PBMCs [1]): > 1000 nM
IC50 (HIV-2 CDC 310319 [5]): 16.1 nM
TI (TC50/IC50) (HIV-1 clinical isolates [6]; HIV-1 96USHIPS7 in PBMCs): >38.8
TI (TC50/IC50) (HIV-1 clinical isolates [6]; HIV-1 BFC01 in PBMCs): >1010.1
TI (TC50/IC50) (HIV-1 clinical isolates [6]; HIV-1 BR/92/021 in PBMCs): >14.2
TI (TC50/IC50) (HIV-1 clinical isolates [6]; HIV-1 BR/92/025 in PBMCs): >9901.0
TI (TC50/IC50) (HIV-1 clinical isolates [6]; HIV-1 BR/93/017 in PBMCs): >487.8
TI (TC50/IC50) (HIV-1 clinical isolates [6]; HIV-1 BR/93/020 in PBMCs): >61.0
TI (TC50/IC50) (HIV-1 clinical isolates [6]; HIV-1 BR/93/022 in PBMCs): >49.8
TI (TC50/IC50) (HIV-1 clinical isolates [6]; HIV-1 CMU 02 in PBMCs): >44.1
TI (TC50/IC50) (HIV-1 clinical isolates [6]; HIV-1 JV 1083 in PBMCs): >71.4
TI (TC50/IC50) (HIV-1 clinical isolates [6]; HIV-1 RW/92/016 in PBMCs): >74.6
TI (TC50/IC50) (HIV-1 clinical isolates [6]; HIV-1 UG/92/046 in PBMCs): >36.1
CC50 (human PBMCs [7]; MDR 807 assay): > 1000 nM
CC50 (human PBMCs [7]; MDR 1385 assay): > 1000 nM
CC50 (human PBMCs [7]; MDR 3761 assay): > 1000 nM
CC50 (in vitro): > 1000 nM
CC50 at 7 days (in vitro): > 1000 nM
IC50 (HIV-1 clinical isolates [8]; HIV-1 96USHIPS7 (subtype /B, R5) in PBMCs): 25.8 nM
IC50 (HIV-1 clinical isolates [8]; HIV-1 BR/92/021 (subtype B/B, R5) in PBMCs): 70.5 nM
IC50 (HIV-1 clinical isolates [8]; HIV-1 BR/93/017 (subtype B/B, R5) in PBMCs): 2.05 nM
IC50 (HIV-1 clinical isolates [8]; HIV-1 BR/93/020 (subtype F/F, R5/X4) in PBMCs): 16.4 nM
IC50 (HIV-1 clinical isolates [8]; HIV-1 BR/93/022 (subtype /B, R5) in PBMCs): 20.1 nM
IC50 (HIV-1 clinical isolates [8]; HIV-1 CMU 02 (subtype /EA, X4) in PBMCs): 22.7 nM
IC50 (HIV-1 clinical isolates [8]; HIV-1 JV 1083 (subtype /G, R5) in PBMCs): 14 nM
IC50 (HIV-1 clinical isolates [8]; HIV-1 RW/92/016 (subtype A/A, R5) in PBMCs): 13.4 nM
IC50 (HIV-1 clinical isolates [8]; HIV-1 UG/92/046 (subtype D/D, X4) in PBMCs): 27.7 nM
TI (TC50/IC50) (HIV-2 CDC 310319 [9]): >62.1
TI (TC50/IC50) ([10]; HIV-1 ADA in macrophages): >221.2
TI (TC50/IC50) ([10]; HIV-1 Ba-L in macrophages): >275.5
IC50 ([11]; Human immunodeficiency virus 1, BAL, Macrophage, HIV-1 Ba-L in macrophages): 36.3 nM
IC50 ([11]; Human immunodeficiency virus 1, Macrophage, HIV-1 ADA in macrophages): 45.2 nM

From US20090018162A1, “USE OF 6-(3-CHLORO-2-FLUOROBENZYL)-1-[(2S)-1-HYDROXY-3-METHYLBUTAN-2-YL]-7-METHOXY-4-OXO-1,4-DIHYDROQUINOLINE-3-CARBOXYLIC ACID OR SALT THEREOF FOR TREATING RETROVIRUS INFECTION” (priority 2006, published 2009)
